Test results reported in patent publication EP2582674B1 (Cymabay Therapeutics, Inc., priority 2010, dated 2011).

Legend:
human GPR120 = target: T1, human GPR120 (Homo sapiens, UniProt Q5NUL3); assay: Intracellular Ca2+ assay in human GPR120 stable cell line (FLIPR Calcium 4 dye, Flexstation); format: cell-based; conditions: HEK293 cells co-expressing Gqi5; for activity at 5 µM: HEK293, % activity at 5 µM compared to the maximal activity of GW9508 at 6.7 µM (=100%), read-out: %Activity (GW9508 Reference Compound); for activity at 2.5 µM: HEK293, % activity at 2.5 µM compared to the maximal activity of the compound of Example 25 at 2.5 µM (=100%), read-out: % Activity (Ex. 25 Reference Compound)
T1 construct: host or cells: HEK293 cells co-expressing Gqi5
T1 sequence (Q5NUL3 1-361): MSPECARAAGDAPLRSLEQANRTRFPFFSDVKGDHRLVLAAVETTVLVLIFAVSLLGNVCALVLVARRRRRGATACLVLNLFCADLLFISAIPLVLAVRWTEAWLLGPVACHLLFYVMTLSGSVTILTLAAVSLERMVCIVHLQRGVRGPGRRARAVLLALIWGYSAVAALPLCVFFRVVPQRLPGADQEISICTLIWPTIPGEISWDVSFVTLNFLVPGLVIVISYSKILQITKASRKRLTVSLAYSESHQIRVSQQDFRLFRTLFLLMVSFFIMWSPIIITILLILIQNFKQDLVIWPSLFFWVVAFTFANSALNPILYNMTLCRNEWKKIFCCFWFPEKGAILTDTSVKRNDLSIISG

C57BL/6J mice [1] = assay: Oral glucose tolerance test; format: in vivo; conditions: 6 h fasted male C57BL/6J mice, incremental AUC vs vehicle; for % reduction AUC glucose excursion at 100mg/kg: 100 mg/kg oral gavage 30 min before 3g/kg oral glucose; for % reduction AUC glucose excursion: Sitagliptin at 1mg/kg, 3g/kg oral glucose
Procedure: (§1) 8-10 week old male C57BL/6J mice (Harlan) were maintained on regular chow diet from Harlan (2018 Teklad Global). On the day of the experiment mice were fasted for 6 hours, then randomized into groups (n=10-15) to receive the tested GPR120 agonist at doses ranging from 100mg/kg or the vehicle (1% CMC, 2% TWEEN 80). Compounds were delivered orally via gavage at 10mL/kg. Blood glucose levels were measured by glucometer (Ascensia Elite XL, Bayer) at time -30 minutes before administration of compound. Blood glucose was measured again after 30 minutes (at time 0), and then the mice were dosed orally with 3g/kg glucose at 10mL/kg. Blood glucose measurements were taken 20, 40, 60, 90 and 120 minutes after glucose administration, by glucometer (Ascensia Elite XL, Bayer).
(§2) Glucose levels were plotted against time, and the incremental area under the curve (AUC) of the glucose excursion was determined from time 0 using Graphpad Prism 5.01. Outliers were excluded using Tukey's box plot outlier test, and statistical significance of differences in AUC of compound treatment compared to vehicle was determined by non-parametric Kruskal-Wallis test with Dunn's post test.
Tables 2 and 3 below show the mean percentage inhibition of the glucose excursion for the fifteen animals tested in each group. The compounds were tested at 100 mg/kg and the levels of blood glucose were determined in the presence and absence of the tested compounds. The percentage of glucose reduction is reported. The tested compounds were selected as examples from the exemplified compounds. […]

C57BL/6J mice [2] = assay: Intra peritoneal glucose tolerance test (IPGTT); format: in vivo; conditions: 30 mg/kg oral gavage 30 min before 2g/kg glucose intra peritoneally, overnight fasted male C57BL/6J mice, incremental AUC of glucose excursion vs vehicle; for inhibition in vivo at 30 mg/kg: Mus musculus, 2 h, read-out: % reduction IPGTT at 30mg/kg
Procedure: as §1, with “day before” for “day of”, “fasted overnight,” for “fasted for 6 hours,”, “dosed intra peritoneally” for “dosed orally”, “with 2g/kg” for “with 3g/kg”
as §2
The compounds were tested at 30 mg/kg and the levels of blood glucose were determined in the presence and absence of the tested compounds. The percentage of glucose reduction is reported. The tested compounds were selected as Examples from the exemplified compounds. […]

Row | activity at 2.5 µM (human GPR120) [%] | Compound | inhibition in vivo at 30 mg/kg (C57BL/6J mice [2]) [%] | also measured
1 |  | 3-(4-((5-chloro-2,2-dimethyl-2,3-dihydrobenzofuran-7-yl)methoxy)-3-fluorophenyl)-2-methylpropanoic acid [Example 10] |  | %Activity (GW9508 Reference Compound) (human GPR120; % activity at 5 µM compared to the maximal activity of GW9508 at 6.7 µM (=100%)): 106.7955%; % reduction AUC glucose excursion at 100mg/kg (C57BL/6J mice [1]; Table 2): 58.1%; % reduction IPGTT at 30mg/kg (C57BL/6J mice [2]): 30.7%
2 |  | CC1(C)Cc2cc(Cl)cc(COc3c(F)cc(C4CC4C(=O)O)cc3F)c2O1 (racemic) [Example 35, 2-(4-((5-chloro-2,2-dimethyl-2,3-dihydrobenzofuran-7-yl)methoxy)-3,5-difluorophenyl)cyclopropanecarboxylic acid] |  | activity at 5 µM (human GPR120): 60.1%; % reduction AUC glucose excursion at 100mg/kg (C57BL/6J mice [1]; Table 3): 27.7%
3 |  | CC1(C)Cc2cc(F)cc(COc3ccc(C4CC4C(=O)O)cc3)c2O1 (racemic) [Example 131 (racemic), 2-(4-((5-fluoro-2,2-dimethyl-2,3-dihydrobenzofuran-7-yl)methoxy)phenyl) cyclopropanecarboxylic acid] | 23.1 | 
4 |  | CC(Cc1ccc(OCc2cc(Cl)cc3c2OC(C)(C)C3)c(C(F)(F)F)c1)C(=O)O (stereo not drawn) [Example 9, 3-(4-((5-chloro-2,2-dimethyl-2,3-dihydrobenzofuran-7-yl)methoxy)-3-(trifluoromethyl)phenyl)-2-methylpropanoic acid] | 19.8 | activity at 5 µM (human GPR120): 113%
5 |  | CC(Cc1ccc(OCc2cc(Cl)cc3c2OC(C)(C)C3)cc1)C(=O)O (stereo not drawn) [Example 13] |  | % reduction AUC glucose excursion at 100mg/kg (C57BL/6J mice [1]; Table 2): 61.9%
6 |  | CC(Cc1ccc(OCc2cc(F)cc3c2OC(C)(C)C3)cc1)C(=O)O (stereo not drawn) [Example 16, 3-(4-((5-fluoro-2,2-dimethyl-2,3-dihydrobenzofuran-7-yl)methoxy)phenyl)-2-methylpropanoic acid] | 19.4 | activity at 5 µM (human GPR120): 111%; % reduction AUC glucose excursion at 100mg/kg (C57BL/6J mice [1]; Table 3): 52.4%
7 |  | CC1(C)Cc2cc(Cl)cc(COc3ccc4c(c3)CCC4CC(=O)O)c2O1 (stereo not drawn) [Example 36, 2-(5-((5-chloro-2,2-dimethyl-2,3-dihydrobenzofuran-7-yl)methoxy)-2,3-dihydro-1H-inden-1-yl)acetic acid] |  | activity at 5 µM (human GPR120): 123%; % reduction AUC glucose excursion at 100mg/kg (C57BL/6J mice [1]; Table 3): 33.6%
8 | 130 | COc1cc(OCc2cc(F)cc3c2OC(C)(C)C3)ccc1CCC(=O)O [Example 50, 3-(4-((5-fluoro-2,2-dimethyl-2,3-dihydrobenzofuran-7-yl)methoxy)-2-methoxyphenyl)propanoic acid] | 26.2 | 
9 |  | CC1(C)Cc2cc(Cl)cc(COc3ccc(CCC(=O)O)c4c3CCC4)c2O1 [Example 64, 3-(7-((5-chloro-2,2-dimethyl-2,3-dihydrobenzofuran-7-yl)methoxy)-2,3-dihydro-1H-inden-4-yl)propanoic acid] | 24.9 | 
10 | 141 | C[C@H](Cc1ccc(OCc2cc(F)cc3c2OC(C)(C)C3)cc1)C(=O)O [Example 65, (R)-3-(4-((5-fluoro-2,2-dimethyl-2,3-dihydrobenzofuran-7-yl)methoxy)phenyl)-2-methylpropanoic acid] | 22.2 | 
11 | 110 | CC(Cc1ccc(OCc2cc(Cl)cc3c2OC(C)(C)C3=O)c(F)c1)C(=O)O (stereo not drawn) [Example 77, 3-(4-((5-chloro-2,2-dimethyl-3-oxo-2,3-dihydrobenzofuran-7-yl)methoxy)-3-fluorophenyl)-2-methylpropanoic acid] | 10.4 | 
12 |  | CC1(C)Cc2cc(F)cc(COc3ccc(CCC(=O)O)cc3)c2O1 [Example 132, 3-(4-((5-fluoro-2,2-dimethyl-2,3-dihydrobenzofuran-7-yl)methoxy)phenyl)propanoic acid] | 6.5 | 
13 | 151 | CCc1cc(OCc2cc(F)cc3c2OC(C)(C)C3)ccc1CCC(=O)O [Example 134, 3-(2-ethyl-4-((5-fluoro-2,2-dimethyl-2,3-dihydrobenzofuran-7-yl)methoxy)phenyl)propanoic acid] | 30.2 | 
14 | 143 | C[C@H](Cc1ccc(OCc2cc(Cl)cc3c2OC(C)(C)C3)c(F)c1)C(=O)O [Example 141, (R)-3-(4-((5-chloro-2,2-dimethyl-2,3-dihydrobenzofuran-7-yl)methoxy)-3-fluorophenyl)-2-methylpropanoic acid] | 30.6 | 
15 |  | C[C@@H](Cc1ccc(OCc2cc(Cl)cc3c2OC(C)(C)C3)c(F)c1)C(=O)O [Example 142, (S)-3-(4-((5-chloro-2,2-dimethyl-2,3-dihydrobenzofuran-7-yl)methoxy)-3-fluorophenyl)-2-methylpropanoic acid] | 36.2 | 
16 | 106 | CC1(C)Cc2cc(F)cc(COc3ccc4c(c3)CC[C@@H]4CC(=O)O)c2O1 [Example 178, (R)-2-(5-((5-fluoro-2,2-dimethyl-2,3-dihydrobenzofuran-7-yl)methoxy)-2,3-dihydro-1H-inden-1-yl)acetic acid] | 16.3 | 
17 | 147 | Cc1c(CCC(=O)O)ccc(OCc2cc(F)cc3c2OC(C)(C)C3)c1C [Example 208, 3-(4-((5-fluoro-2,2-dimethyl-2,3-dihydrobenzofuran-7-yl)methoxy)-2,3-dimethylphenyl)propanoic acid] | 41.7 | 
18 | 142 | Cc1c(CCC(=O)O)ccc(OCc2cc(Cl)cc3c2OC(C)(C)C3)c1C [Example 209, 3-(4-((5-chloro-2,2-dimethyl-2,3-dihydrobenzofuran-7-yl)methoxy)-2,3-dimethylphenyl)propanoic acid] | 43.6 | 
19 |  | CCOc1cc(OCc2cc(F)cc3c2OC(C)(C)C3)ccc1CCC(=O)O [Example 268, 3-(2-ethoxy-4-((5-fluoro-2,2-dimethyl-2,3-dihydrobenzofuran-7-yl)methoxy)phenyl)propanoic acid] | 23 | 
20 |  | N[C@@H](CC(=O)N1CCn2c(nnc2C(F)(F)F)C1)Cc1cc(F)c(F)cc1F [Sitagliptin, sitagliptin, reference compound] |  | % reduction AUC glucose excursion (C57BL/6J mice [1]; Table 2): 58.6%; % reduction AUC glucose excursion (C57BL/6J mice [1]; Table 3): 48.6%
